Literature values in patent US20110223258A1 (priority 2008, published 2011).

Conditions: aqueous solution

In the case of `O=P([O-])(O)O.O=P([O-])(O)O.O=P([O-])(O)O.[Fe+3]` [Fe(H2PO4)3, iron(III) dihydrogen phosphate], the Stability in solution is given as “decomposes in the solution as a result of hydrolysis”.
